Experimental data from US6630464B1, “Cyclin dependent kinase (CDK)4 inhibitors and their use for treating cancer” (The United States of America as represented by the …, priority 1997, dated 2003).
pIC50: −log10 of the molar value. Read-outs that look alike come from different tables or passages of the source.

Tests used:
CDK4:cyclin D1 = CDK4:cyclin D1 (Homo sapiens, UniProt P11802); test: In vitro kinase assay, CDK4:cyclin D1, GST-Rb substrate; conditions: for CDK4 kinase inhibitory potency compared with parent compounds: parents 3-ATA and Compound 6
Description: In vitro kinase assay. Seventy-two hours after infection of 1×10^7 Sf9 cells with baculovirus containing a human CDK gene and/or a cyclin gene, cells were lysed in 250 μl of lysis buffer [50 mM HEPES (pH 7.5), 10 mM MgCl2, 1 mM DTT, 5 ig/ml of aprotinin, 5 μg/ml of leupeptin, 0.1 mM NaF, 0.2 mM phenylmethylsulfonyl fluoride (PMSF), and 0.1 mM sodium orthovanadate], centrifuged, and lysates stored at −70° C. Five microliters of CDK:cyclin lysate were mixed with test compounds in 40 μl of kinase buffer (200 mM Tris-HCl, pH 8.0, 100 mM MgCl2, 10 mM EGTA) and incubated at 30° C. for 30 min. About 400 ng of purified GST-Rb fusion protein and 5 μCi of γ-[^32P]ATP were added to the mixture and incubated at 30° C. for 15 min. Reactions were stopped by the addition of 250 μl of IP buffer (50 mM Tris-HCl, pH 8.0; 150 mM NaCl, 0.5% NP-40) and 15 μl glutathione sepharose. After one hour incubation at 4° C., sepharose beads were washed four times with IP buffer, mixed with 18 μl of 2×sample buffer and electrophoresed on an 8% Tris-glycine gel (Novex, San Diego, Calif.) at 125 V for 90 min. Equal recovery of GST-Rb fusion protein was confirmed by Coomassie blue staining prior to autoradiography.
These compounds were assessed for CDK4:cylin D kinase inhibitory activity using baculovirus-expressed human CDK4 and cyclin D1, and a GST-Rb fusion protein as substrate.
CDC2:cyclin A = molecular target: T1, CDC2:cyclin A (Homo sapiens, UniProt P06493); test: In vitro kinase assay, CDC2:cyclin A; assay type: biochemical; conditions: for Ratio CDC2A:CDK4: (IC50 CDC2)/(IC50 CDK4)
T1 construct: made in house; host or cells: Sf9 insect cells, baculovirus; unpurified lysate
Description: (§1) Characterization of 3-ATA. To examine the specificity of 3-ATA inhibitory activity for CDK4:cyclin D1 kinase, we performed in vitro kinase assays using baculovirus-expressed human CDC2:cyclin A, CDK2:cyclin A, and CDK2:cyclin E complexes.

CDK2:cyclin E = molecular target: T2, CDK2:cyclin E (Homo sapiens, UniProt P24941); test: In vitro kinase assay, CDK2:cyclin E; assay type: biochemical; conditions: for Ratio CDK2/E:CDK4: IC50 ratio, CDK4 as denominator
T2 construct: made in house; host or cells: Sf9 insect cells, baculovirus; unpurified lysate
Description: as §1

CDK2:cyclin A = molecular target: T3, CDK2:cyclin A (Homo sapiens, UniProt P24941); test: In vitro kinase assay, CDK2:cyclin A; assay type: biochemical; conditions: for Ratio CDK2/A:CDK4: IC50 ratio, CDK4 as denominator
T3 construct: made in house; host or cells: Sf9 insect cells, baculovirus; unpurified lysate
Description: as §1

CDK4 = molecular target: T4, CDK4 (Homo sapiens, UniProt P11802); test: CDK4 binding assay (GST-p16 binding to CDK4)
T4 construct: made in house; host or cells: CDK4 and cyclin D1: Sf9 cells, baculovirus, [35S]methionine-labelled cleared lysate; GST-p16: E. coli DH5α
Description: CDK4 binding assay. Sf9 cells (1×10^7) were co-infected with baculovirus containing a cloned human CDK4 gene and/or a cyclin D1 gene in 12.5 ml of Grace's insect medium (Paragon, Baltimore, Md.) containing 10% FBS. After 40 h, cells were washed and placed in 5 ml of methionine-free medium containing 200 μCi/ml of [^35S]methionine (1000 Ci/mmole) for 4 h, followed by lysis in 250 μl. Cleared cell lysate (10 μl) was incubated with 400 ng of wildtype or mutant GST-p16 fusion proteins using the same conditions as the in vitro kinase assay. […] The gel was stained using Coomassie blue, dried, and autoradiography was performed. […] To test the effect of compounds on p16 binding to CDK4, 100 μM of each compound was incubated with CDK4:cyclin D1 lysate for 30 min prior to adding GST-p16 fusion protein.

Sequence of CDK4:cyclin D1 (P11802 whole entry): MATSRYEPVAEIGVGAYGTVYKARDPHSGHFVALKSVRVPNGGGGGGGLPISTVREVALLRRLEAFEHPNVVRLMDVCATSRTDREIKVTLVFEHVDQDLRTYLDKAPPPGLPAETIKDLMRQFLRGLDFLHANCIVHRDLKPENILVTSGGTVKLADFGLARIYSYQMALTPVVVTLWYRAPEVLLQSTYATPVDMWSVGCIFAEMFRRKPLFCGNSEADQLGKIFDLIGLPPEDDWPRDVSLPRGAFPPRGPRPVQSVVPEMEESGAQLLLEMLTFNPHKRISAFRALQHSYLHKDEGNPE
Sequence of CDK4:cyclin D1 (P24385 whole entry partner): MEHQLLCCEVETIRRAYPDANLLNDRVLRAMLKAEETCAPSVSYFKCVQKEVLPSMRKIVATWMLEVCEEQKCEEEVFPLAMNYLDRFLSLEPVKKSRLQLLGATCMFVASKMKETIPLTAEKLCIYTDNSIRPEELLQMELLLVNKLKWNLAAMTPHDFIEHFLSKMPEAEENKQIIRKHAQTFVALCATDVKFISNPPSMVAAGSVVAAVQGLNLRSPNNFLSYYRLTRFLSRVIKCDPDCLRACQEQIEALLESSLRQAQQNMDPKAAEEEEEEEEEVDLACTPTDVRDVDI
T4 sequence (P11802 whole entry): as the sequence (P11802 whole entry) above

Row | pIC50 (CDC2:cyclin A) | pIC50 (CDK2:cyclin E) | Ratio CDK2/E:CDK4 (CDK2:cyclin E) | pIC50 (CDK2:cyclin A) | Ratio CDK2/A:CDK4 (CDK2:cyclin A) | pIC50 (CDK4:cyclin D1) | SMILES | other results
1 |  |  |  |  |  |  | CCC/C=C/C=C/C(=O)O[C@H]1/C(=C/C(=O)OC)C[C@H]2C[C@H]([C@@H](C)O)OC(=O)C[C@H](O)C[C@@H]3C[C@H](OC(C)=O)C(C)(C)[C@](O)(C[C@@H]4C/C(=C/C(=O)OC)C[C@H](/C=C/C(C)(C)[C@]1(O)O2)O4)O3 [Bryostatin 1, reference compound] | Inhibition of GST-Rb phosphorylation by CDK4:cyclin D1 (CDK4:cyclin D1; concentrations up to 100 μM): no inhibitory activity
2 | 4.15 | < 4.00 | >91 | < 4.00 | >91 | 5.96 | O=C(CNc1ccc2c(=S)c3ccccc3[nH]c2c1)Nc1ccccc1-c1ccccc1NC(=O)CNc1ccc2c(=S)c3ccccc3[nH]c2c1 [Compound 5, 2,2′-Biphenyldiamine, bis[N,N′-[3-(amidonmethylamino)-10H-acridine-9-thione]]] | CDK4 kinase inhibitory potency compared with parent compounds (CDK4:cyclin D1): more potent CDK4 kinase inhibitors than the parent compounds
3 |  |  |  |  |  |  | C[C@@H]1[C@]2(O[C@H]3C=C4[C@@H]5CC[C@H]6Cc7nc8c(nc7C[C@]6(C)[C@H]5C[C@@H](O)[C@]4(C)[C@]31O)C[C@@H]1CC[C@H]3C4=CC[C@@H]5[C@H](C)[C@@]6(OC[C@]45C(=O)C[C@@H]3[C@@]1(C)C8)OC(C)(C)C[C@H]6O)O[C@](C)(CO)C[C@H]2O [cephalostatin 1, reference compound] | pIC50 (CDK4:cyclin D1; read-out: IC50 value CDK4/D1): 4.70
4 | 4.22 | 4.10 | 11.8 | < 4.00 | >14.7 | 5.17 | Nc1ccc2c(=S)c3ccccc3[nH]c2c1 [Compound 3, 3-Amino-10H-acridine-9-thione] | Decrease of binding of CDK4 to normal p16 (CDK4; 100 μM compound): 70%; Ratio CDC2A:CDK4 (CDC2:cyclin A): 8.8; Ratio CDC2A:CDK4 (CDC2:cyclin A; listed as 3-ATA): at least nine-fold higher; Ratio CDK2/E:CDK4 (CDK2:cyclin E; listed as 3-ATA): at least nine-fold higher; Ratio CDK2/A:CDK4 (CDK2:cyclin A; listed as 3-ATA): at least nine-fold higher; Effect of exogenous ATP on inhibitory activity in CDK4 kinase assay (CDK4:cyclin D1; exogenous ATP 0 to 600 μM): did not alter the inhibitory activity
5 | < 4.00 | < 4.00 | >45 | < 4.00 | >45 | 5.66 | COc1ccc(OC)c2c(=S)c3ccccc3[nH]c12 [Compound 4, 1,4-Dimethoxy-10H-acridine-9-thione] | Inhibition of p16INK4A binding to CDK4 (CDK4; 100 μM of each compound): did not inhibit; Ratio CDC2A:CDK4 (CDC2:cyclin A): >45; CDC2 kinase inhibitory activity (CDC2:cyclin A; concentrations up to 100 μM): no CDC2 or CDK2 kinase inhibitory activity; CDK2 kinase inhibitory activity (CDK2:cyclin E) (CDK2:cyclin E; concentrations up to 100 μM): no CDC2 or CDK2 kinase inhibitory activity; CDK2 kinase inhibitory activity (CDK2:cyclin A) (CDK2:cyclin A; concentrations up to 100 μM): no CDC2 or CDK2 kinase inhibitory activity; CDK4 kinase inhibitory potency compared with parent compounds (CDK4:cyclin D1): more potent CDK4 kinase inhibitors than the parent compounds
6 | < 4.00 | < 4.00 |  | < 4.00 |  | 5.30 | O=S1(=O)NN=C(NCc2ccc(F)cc2)c2ccccc21 [Compound 6, 4-(4-Fluorobenzylamino)-1,2,3-benzothiadiazine-1,1-dioxide] | 
7 |  |  |  |  |  |  | O=S1(=O)NNC(=NCc2ccc(Cl)c(Cl)c2)c2ccccc21 [NSC 645788] | pIC50 (CDK4:cyclin D1; read-out: IC50 value CDK4/D1): 4.77
